This is an account of results in BindingDB's records for doi:10.1016/s0960-894x(02)00102-6 (Schering-Plough Research Institute, 2002).

This experiment is described as follows: Michaelis-Menten constant was determined against Hepatitis C virus NS3 protease and represented as Km.

Molecules are shown by their SMILES.

Regarding `CCCN(NC(=O)[C@H]1CCCN1C(=O)[C@@H](NC(=O)[C@@H](NC(=O)[C@H](CC(=O)O)NC(=O)[C@H](CCC(=O)O)NC(=O)[C@@H](NC(C)=O)[C@@H](C)O)C(C)C)C(C)C)C(=O)Oc1ccc([N+](=O)[O-])cc1` [Azapeptide], the inhibitory constant (Ki) (commonly a dissociation constant, usually derived from enzyme kinetics or from competition with a known ligand) turned out to be 8 µM.
